{
  "source": "patent US9359323B2",
  "about": "“Compound” (priority 2010, dated 2016)",
  "key": {"[1]": {"tested_on": "mouse embryonic stem cell line E14Tg2a", "assay": "tert-butyl hydroperoxide (tBHP) challenge of mES cells, MTT viability assay", "format": "cell-based", "procedure": "The mouse embryonic stem cell line E14Tg2a was maintained in a pluripotent state in knockout (KO) DMEM supplemented with leukaemia inhibitory factor (LIF), 15% (v/v) knockout serum replacement, 0.1 mM MEM non-essential amino acids, 2 mM 1-glutamine and 140 μM 2-mercaptoethanol in tissue culture flasks coated with 0.1% (w/v) gelatin.\n(§1) mES cells were plated into a 0.1% (w/v) gelatin coated 96-well tissue culture plate at a density of 1.5×10^4 cells per well. The cells were cultured at 37° C. in an atmosphere of 5% CO2 for 20-24 hours before the addition of AO3003, 30 minutes prior to the onset of the tert-butyl hydroperoxide (tBHP) challenge. The cells were incubated with tBHP for 90 minutes at 37° C. (5% CO2) before 20 μl 5 mg/ml 3-(4,5-Dimethyl-2-thiazolyl)-2,5-diphenyl-2H-tetrazolium bromide (MTT) was added to each of the treatment wells. The cells were incubated for a further 3 hours at 37° C. (5% CO2) before all the supernatant was removed from the cells and the insoluble MTT formazan dye, produced by the reduction of MTT by viable cells, was solubilised in 200 μl dimethyl sulfoxide (DMSO). The absorbance of the resulting solution was measured at 540 nm and was proportional to the number of viable mES cells remaining after the tBHP challenge.\nas §1, with “of 7.5×10^3” for “of 1.5×10^4”, “AO3003, 20 hours” for “AO3003, 30 minutes”, “insoluble MIT” for “insoluble MTT”"}, "[2]": {"tested_on": "mouse β-cell insulinoma line MIN-6", "assay": "tert-butyl hydroperoxide (tBHP) challenge of MIN-6 cells, MTT viability assay", "format": "cell-based", "conditions": "compound added 30 minutes prior to tBHP, FIG. 3", "procedure": "The mouse β-cell insulinoma line MIN-6 was maintained in high glucose DMEM supplemented with 15% heat-inactivated foetal bovine serum (FBS) and 70 μM 2-mercaptoethanol.\nas §1, with “MIN-6 cells were” for “mES cells were”, “into a 96-well tissue” for “into a 0.1% (w/v) gelatin coated 96-well tissue”, “density of 2.0×10^4 cells per” for “density of 1.5×10^4 cells per”, “tBHP for 30 minutes at” for “tBHP for 90 minutes at”, “reduction of MIT by viable” for “reduction of MTT by viable”, “tBHP challenge. DMEM is the control viability of cells without peroxide or tBHP.” for “tBHP challenge.”"}},
  "data": [
    {"smiles": "O=c1c(O)c(-c2cc(O)c(O)c(O)c2)oc2cc(C3CCCCC3)ccc12", "note": "[AO3003]", "values": [
      {"measurement": "reversal of oxidative stress-induced loss of viability", "setting": "[1]; 2 μM, compound added 20 hours prior to tBHP challenge, MTT, FIG. 2", "value": "significantly reverses oxidative stress-induced loss of viability"},
      {"measurement": "toxicity (control cell viability without tBHP)", "setting": "[1]; cell viability at 24 h after 0, 1 and 2 μM exposure", "value": "not toxic"},
      {"measurement": "period the compound remains bioprotective once incorporated into the cell", "setting": "[1]; mES cells, tBHP challenge, Experiment 2", "value": "> 24", "unit": "h"},
      {"measurement": "protection against oxidative stress", "setting": "[1]; mouse embryonic stem cell line, tBHP, summary of Experiments 1 and 2", "value": "protects against oxidative stress"},
      {"measurement": "protection against oxidative stress", "setting": "[2]", "value": "protects against oxidative stress"}
    ]}
  ]
}
